The values that follow come from PubChem BioAssay (NCI).

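1) Cells in 96-well plates. 2) Compound, 48 h, 5 concentrations. 3) Linear interpolation between surrounding doses. 4) Unreached endpoint = highest concentration. GI50 is the concentration that inhibits growth by half. At the TGI there is no net growth.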

Assay in all cases: growth of human tumour cells (NCI), 48 h
The test system of test [1] is TK-10 renal.
The subject of test [2] is SF-295 CNS.
Test [3] concerns PC-3 prostate.
Test [4] has as its system HS 578T breast.
In test [5] the test system is CCRF-CEM leukemia.
For test [6], the system named is SNB-75 CNS.
Test [7] relates to HCC-2998 colon.
Test [8] concerns NCI-H23 lung.
Test [9] relates to NCI/ADR-RES ovarian.
For test [10], the system named is LOX IMVI melanoma.

Consider `Cc1cc(C)c(S(=O)(=O)N(CCCCN)OCCCN)c(C)c1`, for which the TGI in test [1] is 32 µM; in [2], 37 µM; in test [3], 27.6 µM; in test [4], 34.4 µM; in test [5], 38.3 µM; in [6], 27.5 µM. Moreover, the TGI in test [7] amounted to 5.59 µM; in test [8], 43.2 µM; in test [9], 36.5 µM; in test [10], 31.9 µM.

Take `C/C(=C/CO[Si](C)(C)C(C)(C)C)C(=O)N(C)c1ccccc1I`: the TGI in test [1] was determined as 33.3 µM; in test [2], 31.5 µM; in test [3], 27 µM; in test [4], 43.5 µM; in [5] it was 43 µM; in [6] it was 33.4 µM. The TGI in test [7] was determined as 28.3 µM; in [8], 41.2 µM; in [9], 37.1 µM; in test [10], 31.8 µM.

`O=C(N/N=C\c1cccc2ccccc12)Nc1ccc([N+](=O)[O-])cc1`: the TGI in test [1] is greater than 80.9 µM; in test [2], greater than 100 µM; in test [3], greater than 70.5 µM; in test [4], greater than 100 µM; in [5], greater than 100 µM; in test [6] it was greater than 100 µM. Besides, the TGI in test [7] is greater than 70.3 µM; in test [8] it was greater than 60.2 µM; in [9], greater than 71.4 µM; in [10], greater than 100 µM.

Regarding `Cc1cc2ccccc2n1CC(=O)NCC(C)C`, the TGI in [1], in [2], in [3], in test [4], in [5] and in test [6] was greater than 100 µM in each case. In addition, the TGI in test [7], in test [8], in test [9] and in [10] was greater than 100 µM in each case.

With `N#CCCC1C(C#N)C2CC1C1C3C=CC(C3)C21` (centres undefined), the TGI in test [1], in [2], in test [3], in test [4], in test [5] and in test [6] was greater than 100 µM throughout. In addition, the TGI in [7], in test [8], in test [9] and in test [10] was greater than 100 µM throughout.

`CC(=O)NC1C(CO)O[C@@H]2OC(C)(C)O[C@H]12` (some centres undefined): the TGI in test [1], in [2], in [3], in [4], in test [5] and in [6] was greater than 100 µM throughout. Besides, the TGI in test [7], in test [8], in test [9] and in [10] was greater than 100 µM throughout.

Consider `O=C(CC(O)(C(F)(F)F)C(F)(F)F)C(CCCl)C(O)(C(F)(F)F)C(F)(F)F` (centres undefined), for which the TGI in test [1] was greater than 100 µM; in test [2] it was greater than 100 µM; in test [3], greater than 100 µM; in [4], greater than 100 µM; in test [5], greater than 100 µM; in test [6] it was 96.4 µM. The TGI in test [7] was greater than 100 µM; in [8], 83.9 µM; in [9], 46.7 µM; in test [10] it was greater than 100 µM.

Turning to `CC(=O)N(CN1C(=O)CCC1C(=O)O)c1ccccc1` (centres undefined), the TGI in [1], in test [2], in [3], in test [4], in [5] and in [6] was greater than 100 µM in each case. In addition, the TGI in [7], in [8], in test [9] and in [10] was greater than 100 µM throughout.

Take `O=C(Nn1c(-c2ccccc2)nc2ccccc2c1=O)c1ccccn1`: the TGI in [1], in test [2], in [3], in test [4], in test [5] and in [6] was greater than 100 µM throughout. Besides, the TGI in test [7], in [8], in test [9] and in test [10] was greater than 100 µM throughout.

Consider `CC(=O)O[C@H]1C#C/C=C\C#CC[C@@H]2C(=O)N(C(=O)OC(C)(C)C)[C@@H]12`, for which the TGI was greater than 100 µM in [1]; greater than 100 µM in [2]; greater than 100 µM in test [3]; greater than 88.7 µM in test [4]; 6.77 µM in [5]; greater than 72.9 µM in [6]. In addition, the TGI in [7] was greater than 67.5 µM; in test [8] it was greater than 69 µM; in test [9] it was 74.7 µM; in test [10], 45.3 µM.

As to `OC1CCCC1C(O)(C(F)(F)F)C(F)(F)F` (centres undefined), the TGI in [1], in test [2], in test [3], in [4], in test [5] and in test [6] was greater than 100 µM throughout. In addition, the TGI in test [7], in test [8], in test [9] and in [10] was greater than 100 µM in each case.

As for `C/C(=N\NC(N)=O)C(CN1CCCCC1)C(c1ccccc1)c1c(O)c2ccccc2oc1=O` (centres undefined), the TGI in test [1], in test [2], in test [3], in test [4], in test [5] and in test [6] was greater than 100 µM throughout. For the same compound, the TGI in test [7], in test [8], in test [9] and in [10] was greater than 100 µM throughout. Moreover, the GI50 in test [3] was 95.3 µM; in [4] it was 79.4 µM; in [8] it was greater than 100 µM; in test [9], greater than 100 µM.

For `CN(C(=O)C1(C(=O)C=[N+]=[N-])CC1)c1ccccc1`, the TGI in test [1], in [2], in [3], in test [4], in [5] and in test [6] was greater than 100 µM throughout. Also, the TGI in test [7], in test [8], in test [9] and in test [10] was greater than 100 µM throughout.

Regarding `CC(C)(CO)CNc1nc(N)nc(Cl)c1N`, the TGI in test [1], in [2], in test [3], in test [4], in [5] and in test [6] was greater than 100 µM throughout. Further, the TGI in test [7], in [8], in test [9] and in test [10] was greater than 100 µM throughout.

Turning to `C/C(O)=C(\C=N\C(N)=S)C(=O)Nc1ccccc1C`, the TGI in [1], in test [2], in test [3], in [4], in test [5] and in test [6] was greater than 100 µM in each case. Also, the TGI in test [7], in [8], in test [9] and in test [10] was greater than 100 µM in each case.

For the compound `N#Cc1c(NC(=O)c2ccccc2)sc2c1CCC(=O)C2`, the GI50 was 1.98 µM in test [1]; 1.96 µM in test [2]; 0.385 µM in test [3]; 1.92 µM in test [4]; 0.43 µM in test [5]; 1.64 µM in test [6]. In addition, the GI50 was 1.82 µM in test [7], 0.768 µM in [8], 1.33 µM in [9] and 0.821 µM in test [10]. The TGI was 28.7 µM in [1]; 6.83 µM in test [2]; 13.3 µM in test [3]; 7.32 µM in test [4]; greater than 100 µM in test [5]; 6.2 µM in test [6]. Besides, the TGI stood at 10.3 µM in test [7], 6.99 µM in test [8], 11.8 µM in test [9] and 5.97 µM in [10].

Take `CCOC(=O)c1ccc(C(=O)C(C(C)=O)C(=O)OC(C)(C)C)n1C` (centres undefined): the TGI in test [1], in [2], in test [3], in test [4], in test [5] and in test [6] was greater than 100 µM throughout. Moreover, the TGI in test [7], in [8], in test [9] and in test [10] was greater than 100 µM in each case.

Take `OCC1OC(n2cnc3cccnc32)CC1O` (centres undefined): the TGI in test [1], in test [2], in [3], in test [4], in test [5] and in test [6] was greater than 100 µM throughout. For the same compound, the TGI in test [7], in test [8], in test [9] and in [10] was greater than 100 µM each time.

Consider `COC(=O)c1sc(=S)sc1SCc1ccccc1CSc1sc(=S)sc1C(=O)OC`, for which the TGI was greater than 100 µM in [1]; greater than 100 µM in test [2]; greater than 100 µM in [3]; greater than 100 µM in test [4]; 87.6 µM in test [5]; greater than 100 µM in test [6]. Further, the TGI in [7], in test [8], in test [9] and in test [10] was greater than 100 µM throughout.

`C=CCC(CNC(=O)OCc1ccccc1)O[Si](C)(C)C(C)(C)C` (centres undefined): the TGI in test [1], in test [2], in [3], in [4], in [5] and in [6] was greater than 100 µM in each case. The TGI in test [7] was greater than 100 µM; in test [8], greater than 100 µM; in test [9] it was greater than 100 µM; in test [10], 47.1 µM.

For the compound `Cc1csc2c1C(=O)c1ccsc1C2=O`, the TGI in [1] is 35.2 µM; in [2] it was 2.99 µM; in [3] it was 8.1 µM; in test [4] it was 4.37 µM; in test [5], greater than 100 µM; in [6], 3.51 µM. Moreover, the TGI in test [7] amounted to 14.6 µM; in test [8] it was 2.5 µM; in test [9] it was 5.9 µM; in test [10], 3.37 µM.

As for `O=C(C1=C(C(=O)c2ccccc2)SC2(S1)C(C(=O)c1ccccc1)=C(C(=O)c1ccccc1)Sc1c2ssc1=O)c1ccccc1`, the TGI in [1], in test [2], in [3], in test [4], in test [5] and in test [6] was greater than 100 µM each time. For the same compound, the TGI in [7], in [8], in test [9] and in test [10] was greater than 100 µM in each case.

Take `CCCCCc1cc2c(cc1O)CC[C@@H]1[C@@H]2CC[C@]2(C)[C@@H](O)CC[C@@H]12`: the TGI stood at 34 µM in test [1]; 28.2 µM in test [2]; 33.1 µM in [3]; 46.5 µM in [4]; 92.8 µM in test [5]; 30.5 µM in [6]. For the same compound, the TGI was determined as 40 µM in test [7], 40.3 µM in test [8], 37.7 µM in [9] and 39.2 µM in test [10].
